Data from patent publication US7342004B2, “Thioether sulphamate steroids as steroid inhibitors and anti-cancer compounds” (Sterix Ltd., priority 2000, dated 2008).

Tests used:
steroid sulphatase (STS) = biological target: T1, steroid sulphatase (STS) (Homo sapiens, UniProt P08842); test: Inhibition of steroid sulphatase activity in placental microsomes, Protocol 4; assay type: biochemical; details: for IC50: placental microsomes; for inhibition at 0.01 µM: read-out: Placental Microsomes, % inhibition 10 nM; for inhibition at 1 µM: read-out: Placental Microsomes, % inhibition 1 μM
T1 sequence (P08842 22-583): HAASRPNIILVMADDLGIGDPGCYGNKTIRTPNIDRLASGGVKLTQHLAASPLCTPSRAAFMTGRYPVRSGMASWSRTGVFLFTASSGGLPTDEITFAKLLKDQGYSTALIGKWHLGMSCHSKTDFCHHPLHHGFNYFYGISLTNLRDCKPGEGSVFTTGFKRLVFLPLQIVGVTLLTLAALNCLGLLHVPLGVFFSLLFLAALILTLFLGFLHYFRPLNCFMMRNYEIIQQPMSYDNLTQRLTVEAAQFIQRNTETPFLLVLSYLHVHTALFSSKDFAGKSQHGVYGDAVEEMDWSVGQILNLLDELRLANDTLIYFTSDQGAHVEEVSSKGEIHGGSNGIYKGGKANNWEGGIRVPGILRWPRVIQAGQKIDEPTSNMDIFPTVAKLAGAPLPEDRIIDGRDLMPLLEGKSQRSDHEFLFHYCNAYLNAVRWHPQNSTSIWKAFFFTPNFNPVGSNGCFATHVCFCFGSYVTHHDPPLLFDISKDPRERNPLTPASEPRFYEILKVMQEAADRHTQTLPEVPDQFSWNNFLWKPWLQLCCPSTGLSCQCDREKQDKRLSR
Protocol: Sulphatase-positive human placenta from normal term pregnancies are thoroughly minced with scissors and washed once with cold phosphate buffer (pH 7.4, 50 mM) then resuspended in cold phosphate buffer (5 ml/g tissue). Homogenisation is accomplished with an Ultra-Turrax homogeniser, using three 10 second bursts separated by 2 minute cooling periods in ice. Nuclei and cell debris are removed by centrifuging (4° C.) at 2000 g for 30 minutes and portions (2 ml) of the supernatant are stored at […] The protein concentration of the supernatants is determined by the method of Bradford (Anal. Biochem., 72, 248-254 (1976)).
Incubations (1 ml) are carried out using a protein concentration of […], substrate concentration of […] [6,7-3H]oestrone-3-sulphate (specific activity 60 Ci/mmol from New England Nuclear, Boston, Mass., U.S.A.) and an incubation time of 20 minutes at 37° C. If necessary eight concentrations of compounds are employed: 0 (i.e. control); 0.05 mM; 0.1 mM; 0.2 mM; 0.4 mM; 0.6 mM; 0.8 mM; 1.0 mM. After incubation each sample is cooled and the medium (1 ml) was pipetted into separate tubes containing [14C]oestrone (7×10^3 dpm) (specific activity 97 Ci/mmol from Amersham International Radiochemical Centre, Amersham, U.K.). The mixture is shaken thoroughly for 30 seconds with toluene (5 ml). Experiments have shown that >90% [14C]oestrone and <0.1% [3H]oestrone-3-sulphate is removed from the aqueous phase by this treatment. A portion (2 ml) of the organic phase was removed, evaporated and the 3H and 14C content of the residue determined by scintillation spectrometry. The mass of oestrone-3-sulphate hydrolysed is calculated from the 3H counts obtained (corrected for the volumes of the medium and organic phase used, and for recovery of [14C]oestrone added) and the specific activity of the substrate.
(§1) The STS inhibition provided by the compounds was determined in accordance with the placental microsomes assay of Protocol 4 and a plate assay.

STS = test: Plate assay, % inhibition; assay type: biochemical
Protocol: as §1

CuZnSOD = CuZnSOD (UniProt P00442); test: Superoxide dismutase (SOD) spectrophotometric XTT assay, Protocol 1; assay type: biochemical; details: xanthine oxidase/XTT, 24° C., 30 minutes, read-out: IC 50/μM (+/− SEM) SOD Inhibition
Protocol: In this reaction, 3′-{1-[(phenylamino)-carbonyl]-3,4-tetrazolium}-bis(4-methoxy-6-nitro)benzenesulfonic acid hydrate (XTT) is converted to a colourimetric product by the action of superoxide ions (produced by xanthine oxidase (XO) and xanthine). Production of superoxide ions is inhibited by SOD resulting in decreased product. The ability of test compounds to inhibit SOD is measured by their ability to restore production of the coloured product. Reactions were performed in a total volume of 0.1 ml of buffer A (42 mM Na2CO3 (pH 9.4), 0.1 mM xanthine (Sigma), 0.1 mM EDTA, 0.026 mM XTT (Sigma)).
The reaction was incubated at 24° C. for 30 minutes and products determined by measuring absorobance at 470 nm. All determinations were made in duplicate/triplicate.
SOD activity was measured in accordance with Protocol 1.
Initial analyses were performed using test compounds at 100 μM.

uterus = details: cited from earlier work
DHA-STS = biological target: T2, DHA-STS (Rattus norvegicus, UniProt P15589); details: administered either orally or subcutaneously; cited from earlier work
T2 construct: from tissue; host or cells: rat liver (after oral or subcutaneous dosing)
T2 sequence (P15589 20-577): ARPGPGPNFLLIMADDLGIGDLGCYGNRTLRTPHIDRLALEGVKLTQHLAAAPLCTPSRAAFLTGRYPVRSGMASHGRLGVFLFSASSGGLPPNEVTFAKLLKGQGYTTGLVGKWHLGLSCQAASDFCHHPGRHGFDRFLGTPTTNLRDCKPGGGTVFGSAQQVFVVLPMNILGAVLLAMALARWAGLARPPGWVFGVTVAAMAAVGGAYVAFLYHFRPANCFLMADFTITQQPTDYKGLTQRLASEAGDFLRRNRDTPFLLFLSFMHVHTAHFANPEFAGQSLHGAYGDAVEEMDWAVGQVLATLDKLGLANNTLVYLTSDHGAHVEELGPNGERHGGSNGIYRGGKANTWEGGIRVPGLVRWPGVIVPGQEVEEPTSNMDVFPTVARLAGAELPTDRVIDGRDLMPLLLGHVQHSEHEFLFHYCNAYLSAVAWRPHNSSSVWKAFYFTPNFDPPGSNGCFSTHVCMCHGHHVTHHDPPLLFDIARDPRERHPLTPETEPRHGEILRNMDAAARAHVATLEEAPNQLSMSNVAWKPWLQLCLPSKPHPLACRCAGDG

rat liver E1-STS = biological target: T3, rat liver E1-STS (Rattus norvegicus, UniProt P15589); details: administered either orally or subcutaneously; cited from earlier work
T3 construct: from tissue; host or cells: rat liver (after oral or subcutaneous dosing)
T3 sequence (P15589 20-577): T2 sequence (P15589 20-577)

steroid sulphatase = biological target: T4, steroid sulphatase (Homo sapiens, UniProt P08842); details: cited from earlier work
T4 sequence (P08842 22-583): T1 sequence (P08842 22-583)

[1] = tested on: MCF7, CAL51, CAMA1 and ZR-75-1 breast cancer derived cell lines; test: Cell cycle and apoptosis analysis in breast cancer cell lines; assay type: cell-based, human
Protocol: MCF7, CAL51, CAMA1 and ZR-75-1 breast cancer derived cell lines were obtained from ATCC (MCF7, CAMA1, ZR-75-1) or from the Dutrillaux laboratory (CAL51) (22) and maintained in Dulbecco's modified Eagle's medium (DMEM) supplemented with 10% (v/v) fetal calf serum and antibiotics.
DNA content was determined by flow cytometric analysis of propidium iodide stained cells and TdT-mediated dUTP-nick end labelling (TUNEL), respectively, as described (20). The proportion of cells in G2/M phase of the cell cycle was calculated as a proportion of cells with […] DNA content. The proportion of cells with <G1 DNA content was calculated as a percentage of total cells.
To determine the proportion of cells in mitosis, drug treated cells were collected by trypsinisation and cytospins prepared. Cells were fixed in ice cold methanol for 5 minutes, air dried and DNA was stained using propidium iodide (PI) (0.1 mg/ml in phosphate buffered saline (PBS) containing 10% (v/v) newborn calf serum and 0.05% (w/v) sodium azide). Cells were analysed by confocal microscopy using a Zeiss Axiovert 100 M microscope equipped with the LSM 510 confocal system (Zeiss, Jena, Germany).
We examined whether the differential sensitivity of breast cancer cell lines to the growth inhibitory effects of the compounds of the present invention.

Compound `CSc1cc2c(cc1OS(N)(=O)=O)CCC1C2CC[C@@]2(C)C1CC[C@@]2(O)Cc1ccccc1` (stereo in doubt) [Compound 30, Sulfamic acid 17-benzyl-17-hydroxy-13-methyl-2-methylsulfanyl-7,8,9,11,12,13,14, 15,16,17-decahydro-6H-cyclopenta[a]phenanthren-3-yl ester] has an IC50 (steroid sulphatase (STS)) of 0.044 µM, an inhibition at 0.01 µM (steroid sulphatase (STS)) of 15.5% and an inhibition at 0.1 µM (steroid sulphatase (STS); read-out: Placental Microsomes, % inhibition 100 nM) of 69.7%. The inhibition at 1 µM (steroid sulphatase (STS)) was 93%, the inhibition at 10 µM (steroid sulphatase (STS); read-out: Placental Microsomes, % inhibition 10 μM) was 97.4% and the “Plate Assay, % inhibition 0.1 μM” value (STS) was less than 1%. For the same compound, the “Plate Assay, % inhibition 1 μM” value (STS) was less than 1% and the “Plate Assay, % inhibition 10 μM” value (STS) was 31%.

For `CSc1cc2c(cc1O)CCC1C2CC[C@]2(C)C(=O)CCC12` (some centres unmarked) [Compound 8, 2-methylsulfanylestrone], the IC50 (CuZnSOD) was 21 µM, the “Plate Assay, % inhibition 0.1 μM” value (STS) was less than 1% and the “Plate Assay, % inhibition 1 μM” value (STS) was 1%. The “Plate Assay, % inhibition 10 μM” value (STS) was 11%.

For `CCSc1cc2c(cc1O)CCC1C2CC[C@]2(C)C(=O)CCC12` (some centres unmarked) [Compound 10, 2-ethylsulfanylestrone], the IC50 (CuZnSOD) was 79 µM, the “Plate Assay, % inhibition 0.1 μM” value (STS) was less than 1% and the “Plate Assay, % inhibition 1 μM” value (STS) was less than 4%. The “Plate Assay, % inhibition 10 μM” value (STS) was 14%.

For `CC12CCC3c4ccc(OS(N)(=O)=O)cc4CCC3C1CCC2=O` (centres unmarked) [Compound 24, estrone-3-O-sulphamate, reference compound], the “oral uterotrophic activity in rats relative to estradiol” value (uterus; oral, rats, higher than that of estradiol) is listed as 100 times, the “inhibition of rat liver DHA-STS activity” value (DHA-STS) is listed as 99% and the IC50 (CuZnSOD) is listed as greater than 100 µM. The “inhibition of rat liver E1-STS activity” value (rat liver E1-STS) was 99%.

In the case of `COc1cc2c(cc1OS(N)(=O)=O)CC[C@@H]1[C@@H]2CC[C@]2(C)C(=O)CC[C@@H]12` [Compound 25, 2-methoxyestrone-3-O-sulphamate], the oestrogenicity (uterus; rat, in vivo) is given as “devoid of oestrogenicity”, the “potency as a steroid sulphatase inhibitor compared with EMATE” value (steroid sulphatase) is given as “equipotent with EMATE” and the IC50 (CuZnSOD) is given as greater than 100 µM.

For `CSc1cc2c(cc1O)CCC1C2CCC2(C)C1CCC2(O)Cc1ccc(C(C)(C)C)cc1` (centres unmarked) [Compound 31, 17-(4-tert-Butyl-benzyl)-13-methyl-2-methylsulfanyl-7,8,9,11,12,13,14,15,16,17-decahydro-6H-cyclopenta[a]phenanthrene-3,17-diol], the “Plate Assay, % inhibition 0.1 μM” value (STS) was less than 1%, the “Plate Assay, % inhibition 1 μM” value (STS) was less than 1% and the “Plate Assay, % inhibition 10 μM” value (STS) was 50%.

For `CSc1cc2c(cc1OS(N)(=O)=O)CCC1C2CCC2(C)C1CCC2(O)Cc1ccc(C(C)(C)C)cc1` (centres unmarked) [Compound 32, Sulfamic acid 17-(4-tert-butyl-benzyl)-17-hydroxy-13-methyl-2-methylsulfanyl-7,8,9,11,12,13,14,15,16,17-decahydro-6H-cyclopenta[a]phenanthren-3-yl ester], the inhibition at 1 µM (steroid sulphatase (STS)) was 81.8%, the “Plate Assay, % inhibition 0.1 μM” value (STS) was less than 1% and the “Plate Assay, % inhibition 1 μM” value (STS) was less than 1%. The “Plate Assay, % inhibition 10 μM” value (STS) was 48%.

For `CSc1cc2c(cc1OS(N)(=O)=O)CCC1C2CC[C@]2(C)C(=O)CCC12` (some centres unmarked) [Compound 36], the “Effect on cell morphology (rounding, detachment)” value [1] was “induced cells to become rounded and detached from the plate/flask”, the IC50 (steroid sulphatase (STS)) was 0.12 µM and the inhibition at 1 µM (steroid sulphatase (STS)) was 86.9%. The “Plate Assay, % inhibition 0.1 μM” value (STS) was 3%, the “Plate Assay, % inhibition 1 μM” value (STS) was 53% and the “Plate Assay, % inhibition 10 μM” value (STS) was 55%.

With `CCSc1cc2c(cc1OS(N)(=O)=O)CCC1C2CC[C@]2(C)C(=O)CCC12` (some centres unmarked) [Compound 38] the inhibition at 0.01 µM (steroid sulphatase (STS)) was less than 5%, the inhibition at 1 µM (steroid sulphatase (STS)) was 66% and the “Plate Assay, % inhibition 0.1 μM” value (STS) was less than 1%. The “Plate Assay, % inhibition 1 μM” value (STS) was 1% and the “Plate Assay, % inhibition 10 μM” value (STS) was 16%.
